This passage reports IC50 results from US12258355B2, “Probes for imaging huntingtin protein” (CHDI Foundation, Inc., priority 2014, dated 2025).

SMILES strings stand for the structures.

In the experiment the target is T1, Q46 protein aggregates (Homo sapiens, UniProt P42858).
T1 construct: fused on or other part: GST at the N-terminus, cut off with thrombin before the test to start aggregation; The wells held aggregated Q46 without GST
T1 sequence (P42858 with tags, fused parts or gaps with the stated changes, form open): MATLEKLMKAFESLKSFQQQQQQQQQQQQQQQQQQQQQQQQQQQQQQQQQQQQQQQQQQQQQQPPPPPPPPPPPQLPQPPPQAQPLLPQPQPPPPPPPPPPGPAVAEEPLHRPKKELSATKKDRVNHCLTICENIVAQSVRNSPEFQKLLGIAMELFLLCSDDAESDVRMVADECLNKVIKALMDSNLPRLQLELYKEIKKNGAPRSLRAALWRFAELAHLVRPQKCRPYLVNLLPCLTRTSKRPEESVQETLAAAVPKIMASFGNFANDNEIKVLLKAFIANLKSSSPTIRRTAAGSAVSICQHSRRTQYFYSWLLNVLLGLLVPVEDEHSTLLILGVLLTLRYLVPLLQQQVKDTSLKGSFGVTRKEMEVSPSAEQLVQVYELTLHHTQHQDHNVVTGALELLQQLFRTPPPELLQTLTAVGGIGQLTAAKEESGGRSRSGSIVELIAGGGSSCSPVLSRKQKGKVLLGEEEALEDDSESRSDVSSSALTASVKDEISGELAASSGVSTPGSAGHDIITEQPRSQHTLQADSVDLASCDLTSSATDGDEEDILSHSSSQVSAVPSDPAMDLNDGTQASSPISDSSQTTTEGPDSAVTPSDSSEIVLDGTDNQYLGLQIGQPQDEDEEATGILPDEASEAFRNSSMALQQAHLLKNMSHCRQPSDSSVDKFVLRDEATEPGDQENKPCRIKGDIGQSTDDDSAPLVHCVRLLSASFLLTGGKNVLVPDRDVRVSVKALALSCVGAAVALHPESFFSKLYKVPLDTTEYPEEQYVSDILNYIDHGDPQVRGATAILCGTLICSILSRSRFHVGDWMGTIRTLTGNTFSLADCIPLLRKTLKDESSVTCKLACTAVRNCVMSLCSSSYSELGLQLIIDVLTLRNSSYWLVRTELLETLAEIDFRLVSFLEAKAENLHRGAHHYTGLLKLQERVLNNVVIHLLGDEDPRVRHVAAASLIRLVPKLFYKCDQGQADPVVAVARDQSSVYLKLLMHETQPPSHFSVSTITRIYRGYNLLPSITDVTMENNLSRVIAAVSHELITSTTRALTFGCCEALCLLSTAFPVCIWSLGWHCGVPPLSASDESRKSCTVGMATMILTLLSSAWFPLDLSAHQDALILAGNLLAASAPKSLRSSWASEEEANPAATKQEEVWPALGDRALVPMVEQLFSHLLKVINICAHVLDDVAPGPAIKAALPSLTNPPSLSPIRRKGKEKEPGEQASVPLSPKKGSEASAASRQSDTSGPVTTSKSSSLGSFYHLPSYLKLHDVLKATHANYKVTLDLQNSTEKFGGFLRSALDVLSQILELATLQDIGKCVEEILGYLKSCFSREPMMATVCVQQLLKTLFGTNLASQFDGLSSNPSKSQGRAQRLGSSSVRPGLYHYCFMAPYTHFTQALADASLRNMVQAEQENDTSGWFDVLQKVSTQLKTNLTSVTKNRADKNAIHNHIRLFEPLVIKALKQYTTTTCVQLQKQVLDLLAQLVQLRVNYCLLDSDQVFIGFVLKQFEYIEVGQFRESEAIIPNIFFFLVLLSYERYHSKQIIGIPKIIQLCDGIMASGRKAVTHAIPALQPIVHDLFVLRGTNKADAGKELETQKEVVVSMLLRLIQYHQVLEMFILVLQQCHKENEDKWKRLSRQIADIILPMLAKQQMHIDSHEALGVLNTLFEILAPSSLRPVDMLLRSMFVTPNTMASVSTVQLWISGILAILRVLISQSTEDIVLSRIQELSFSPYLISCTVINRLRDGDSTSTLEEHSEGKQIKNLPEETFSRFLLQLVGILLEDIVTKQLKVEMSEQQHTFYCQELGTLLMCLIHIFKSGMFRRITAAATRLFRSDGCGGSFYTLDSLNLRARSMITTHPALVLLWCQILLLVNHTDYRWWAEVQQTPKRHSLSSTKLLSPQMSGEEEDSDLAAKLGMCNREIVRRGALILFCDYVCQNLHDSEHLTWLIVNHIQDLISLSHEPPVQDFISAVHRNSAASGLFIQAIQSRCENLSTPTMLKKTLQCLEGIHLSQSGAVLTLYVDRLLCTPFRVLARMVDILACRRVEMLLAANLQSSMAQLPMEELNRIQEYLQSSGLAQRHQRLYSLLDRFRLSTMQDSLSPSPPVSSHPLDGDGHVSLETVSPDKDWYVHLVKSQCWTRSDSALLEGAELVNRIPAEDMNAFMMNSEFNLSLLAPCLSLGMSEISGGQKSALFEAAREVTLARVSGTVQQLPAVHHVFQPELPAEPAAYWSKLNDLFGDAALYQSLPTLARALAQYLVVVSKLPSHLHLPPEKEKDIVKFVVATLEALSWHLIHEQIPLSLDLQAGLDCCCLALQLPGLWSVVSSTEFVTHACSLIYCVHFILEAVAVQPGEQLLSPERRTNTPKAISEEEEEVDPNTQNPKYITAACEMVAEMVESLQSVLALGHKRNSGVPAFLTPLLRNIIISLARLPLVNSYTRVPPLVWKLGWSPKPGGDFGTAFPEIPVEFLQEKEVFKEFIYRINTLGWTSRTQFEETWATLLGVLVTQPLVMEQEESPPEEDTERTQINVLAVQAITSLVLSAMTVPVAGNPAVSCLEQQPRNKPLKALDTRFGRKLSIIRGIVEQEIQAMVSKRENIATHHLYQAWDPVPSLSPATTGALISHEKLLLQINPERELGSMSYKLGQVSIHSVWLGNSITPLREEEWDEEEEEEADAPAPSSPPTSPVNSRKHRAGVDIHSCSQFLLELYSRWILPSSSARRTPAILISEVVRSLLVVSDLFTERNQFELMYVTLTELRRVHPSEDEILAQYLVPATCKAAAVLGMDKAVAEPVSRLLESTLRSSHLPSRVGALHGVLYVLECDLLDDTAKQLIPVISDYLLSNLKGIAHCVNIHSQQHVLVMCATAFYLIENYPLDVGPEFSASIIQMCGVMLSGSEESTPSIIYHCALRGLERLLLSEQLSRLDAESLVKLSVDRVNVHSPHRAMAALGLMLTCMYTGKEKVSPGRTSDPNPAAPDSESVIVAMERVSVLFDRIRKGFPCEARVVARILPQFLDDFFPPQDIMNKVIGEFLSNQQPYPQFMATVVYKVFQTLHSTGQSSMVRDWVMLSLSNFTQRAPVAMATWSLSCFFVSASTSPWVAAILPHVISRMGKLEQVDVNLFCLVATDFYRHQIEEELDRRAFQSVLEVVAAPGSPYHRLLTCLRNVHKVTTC
The experiment is described as follows: Q46 radioligand binding assay (RBA). The conditions noted are these: 10 nM ligand [3H3]MK-3328. The essentials:
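Aggregates from thrombin-cleaved GST-Q46 (16 h, 37° C) at 5 μM monomer-equivalent were pre-incubated 20 min at room temperature with compound (1 μM to 30 pM) in 150 mM NaCl, 50 mM Tris pH 8.0, then 60 min at 37° C with 10 nM [^3H3]MK-3328. Bound radioactivity was filtered and counted; IC50 came from a four-parameter global fit normalized to vehicle and 3 μM unlabelled MK-3328.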
As a reminder, the IC50 is the concentration needed to halve the response being measured. Low values mean greater potency, high ones weaker potency. In turn, `COc1ccc(COc2ccc3oc(-c4ccc(NC(C)=O)nc4)nc3c2)nc1` [N-(5-{5-[(5-methoxypyridin-2-yl)methoxy]-1,3-benzoxazol-2-yl}pyridin-2-yl)acetamide] had an IC50 of less than 100 nM.
As to `Brc1ccc(COc2cnc3oc(-c4cccnc4)nc3c2)nc1` [3-{6-[(5-bromopyridin-2-yl)methoxy]-[1,3]oxazolo[5,4-b]pyridin-2-yl}pyridine], the IC50 was less than 100 nM.
Then `N#Cc1cnccc1-c1cc2cc(OCc3cn[nH]c3)ccc2o1` [4-[5-(1H-pyrazol-4-ylmethoxy)-1-benzofuran-2-yl]pyridine-3-carbonitrile], with less than 100 nM.
Take `Cc1cncc(Oc2ccc(C(=O)Nc3ccc4oc(-c5cccnc5)nc4c3)cc2)n1` [4-[(6-methylpyrazin-2-yl)oxy]-N-[2-(pyridin-3-yl)-1,3-benzoxazol-5-yl]benzamide]: the IC50 was less than 100 nM.
In the case of `COc1ccc(COc2ccc3oc(-c4ccc(=O)n(C)n4)nc3c2)nc1` [6-{5-[(5-methoxypyridin-2-yl)methoxy]-1,3-benzoxazol-2-yl}-2-methyl-2,3-dihydropyridazin-3-one], the IC50 was less than 100 nM.
In the case of `COc1cnc(COc2ccc3oc(-c4cnn(C)c4)nc3c2)cn1` [5-[(5-methoxypyrazin-2-yl)methoxy]-2-(1-methyl-1H-pyrazol-4-yl)-1,3-benzoxazole], the IC50 is less than 100 nM.
For `COc1ccc(C(=O)Nc2ccc3oc(-c4ccncc4)nc3c2)cc1` [4-methoxy-N-[2-(pyridin-4-yl)-1,3-benzoxazol-5-yl]benzamide], the IC50 was less than 100 nM.
For `COc1ccc(COc2ccc3oc(-c4cnccn4)nc3c2)nc1` [5-[(5-methoxypyridin-2-yl)methoxy]-2-(pyrazin-2-yl)-1,3-benzoxazole], the half-maximal inhibitory concentration (IC50) was less than 100 nM.
The result for `COc1ccc(COc2cnc3oc(-c4cccnc4)nc3c2)[n+]([O-])c1` [5-methoxy-2-({[2-(pyridin-3-yl)-[1,3]oxazolo[5,4-b]pyridin-6-yl]oxy}methyl)pyridin-1-ium-1-olate] reads less than 100 nM.
Regarding `N#Cc1ccc(C(=O)Nc2ccc3oc(-c4cccnc4)nc3c2)cc1` [4-cyano-N-[2-(pyridin-3-yl)-1,3-benzoxazol-5-yl]benzamide], the IC50 was less than 100 nM.
In the case of `COc1ccc(C(=O)Nc2ccc3oc(-c4cccnc4)nc3c2)nc1` [5-methoxy-N-[2-(pyridin-3-yl)-1,3-benzoxazol-5-yl]pyridine-2-carboxamide], the IC50 is less than 100 nM.
On to `c1cncc(-c2nc3cc(Nc4nnc5ccccn45)ccc3o2)c1` [2-(pyridin-3-yl)-N-{[1,2,4]triazolo[4,3-a]pyridin-3-yl}-1,3-benzoxazol-5-amine], for which the IC50 is less than 100 nM.
`COc1ccc(C(=O)Nc2ccc3oc(-c4cccnc4)nc3c2)cc1` [4-methoxy-N-[2-(pyridin-3-yl)-1,3-benzoxazol-5-yl]benzamide]: the IC50 was less than 100 nM.
Then `COc1ccc(NCc2ccc3oc(-c4cccnc4)nc3c2)nc1` [5-methoxy-N-{[2-(pyridin-3-yl)-1,3-benzoxazol-5-yl]methyl}pyridin-2-amine], with 100 to 500 nM; and `N#Cc1cccc(C(=O)Nc2ccc3oc(-c4cccnc4)nc3c2)c1` [3-cyano-N-[2-(pyridin-3-yl)-1,3-benzoxazol-5-yl]benzamide], with less than 100 nM; and `COc1ccnc(C(=O)Nc2ccc3oc(-c4ccc(=O)n(C)n4)nc3c2)c1` [4-methoxy-N-[2-(1-methyl-6-oxo-1,6-dihydropyridazin-3-yl)-1,3-benzoxazol-5-yl]pyridine-2-carboxamide], with less than 100 nM.
The result for `COc1ccc(COc2ccc3oc(-c4cn(C)cn4)nc3c2)nc1` [5-[(5-methoxypyridin-2-yl)methoxy]-2-(1-methyl-1H-imidazol-4-yl)-1,3-benzoxazole] reads 100 to 500 nM; that for `Cn1cc(-c2nc3cc(OCc4ccc(N)cn4)cnc3o2)cn1` [6-({[2-(1-methyl-1H-pyrazol 4-yl)-[1,3]oxazolo[5,4-b]pyridin-6-yl]oxy}methyl)pyridin-3-amine], 100 to 500 nM; that for `CNC(=O)c1ccc(-c2nc3cc(OCc4ccc(OC)cn4)ccc3o2)c[n+]1[O-]` [5-{5-[(5-methoxypyridin-2-yl)methoxy]-1,3-benzoxazol-2-yl}-2-(methylcarbamoyl)pyridin-1-ium-1-olate], less than 100 nM.
As to `O=C(Nc1ccc2oc(-c3cccnc3)nc2c1)c1ccc2nccnc2c1` [N-[2-(pyridin-3-yl)-1,3-benzoxazol-5-yl]quinoxaline-6-carboxamide], the IC50 is less than 100 nM.
`COc1cccnc1C(=O)Nc1ccc2oc(-c3cccnc3)nc2c1` [3-methoxy-N-[2-(pyridin-3-yl)-1,3-benzoxazol-5-yl]pyridine-2-carboxamide] gave a 50% inhibitory concentration (IC50) of 100 to 500 nM.
`N#Cc1cnccc1-c1cc2cc(OCc3cncnc3)ccc2o1` [4-[5-(pyrimidin-5-ylmethoxy)-1-benzofuran-2-yl]pyridine-3-carbonitrile]: the half-maximal inhibitory concentration (IC50) is less than 100 nM.
Then `COc1ccc(COc2ccc3oc(N4CCn5ccnc5C4)nc3c2)nc1` [2-{5H,6H,7H,8H-imidazo[1,2-a]pyrazin-7-yl}-5-[(5-methoxypyridin-2-yl)methoxy]-1,3-benzoxazole], with less than 100 nM; and `Cn1cc(-c2ccc3oc(-c4cccnc4)nc3c2)cn1` [5-(1-methyl-1H-pyrazol-4-yl)-2-(pyridin-3-yl)-1,3-benzoxazole], with 100 to 500 nM.
In turn, `O=C(Nc1ccc2oc(-c3cccnc3)nc2c1)c1cc2ccccc2o1` [N-[2-(pyridin-3-yl)-1,3-benzoxazol-5-yl]-1-benzofuran-2-carboxamide] returned an IC50 of less than 100 nM.
